In data set [1] the test system is HEY cells. Kind of data set: serum-induced invasion through a matrigel layer. The data set is classed as cell-based, human. To be noted: miR-429 transfected HEY cells vs negative control. The method, then: For the migration and invasion assays, 2.5×10^3 overnight serum starved cells in serum-free media were added to the top chambers of trans-well plates (8 μm pore size; BD, Franklin Lakes, N.J.) and media containing 10% fetal calf serum (FCS) were added to the bottom chambers. After 8-12 h, the non-migrating (top) cells were removed and the invading (bottom) cells were counted. All assays were done in triplicate. For the wound-healing assay, 2.5×10^5 cells were seeded into six-well plates. After 24 h, a wound was incised, detached cells removed and fresh media added. Photos were taken after 8 hrs to monitor the invasion of cells into the wounded area.
To further explore the effects of ectopic expression of miR-429 in HEY cells, we looked for changes in cellular functions frequently associated with EMT. For example, ovarian and other types of cancer cells undergoing EMT typically display increased motility/migration and invasiveness. […] Relative invasiveness was also measured by monitoring serum-induced invasion through a matrigel layer.

Data set [2] deals with HEY cells. In words: anchorage-independent growth in soft agar. The data set is classed as cell-based, human. To be noted: 8 days in soft agar, vs negative control. The method, then:
Anchorage independent growth was examined using Cell Biolab's (San Diego, Calif.) soft agar kit according to the manufacturer's protocol. Briefly, 5,000 cells were grown in a 0.3% low melting temperature agar matrix. After 8 days of incubation, the agar matrix was solubilized, cells stained and absorbance recorded at 520 nm. The optical density (OD) was measured in a 96-well plate reader using a 485/520 nm filter set.
Anchorage-independent growth is another characteristic of mesenchymal cells and is considered a hallmark of cellular transformation [Takeyama et al., Cancer Lett 2010; 96:216-24]. We tested anchorage-independent growth of HEY cells transfected with miR-429 relative to controls.

Entries after “also recorded” stand apart in the source; their conditions may differ. Where only a bound is given, the exact number is not on record here.

For the substance “miR-429: miR-200 family member; mature miRNA UAAUACUGUCUGGUAAAACCGU (SEQ ID NO: 6); miRNA oligonucleotide (Ambion) transfected at 30 nM (listed as RNA, chemistry not given here; listed as Homo sapiens) [miR-200 family member; miRNA oligonucleotide (Ambion) transfected at 30 nM]”, in the data set on HEY cells [1], the “decrease in invasion relative to controls” value is recorded as over 5 fold. For the same substance, the anchorage-independent growth result with HEY cells [2] is “significant suppression; also recorded: significantly reduced”.

The values above are taken from patent US8895509B2, “MIR-200 family induces mesenchymal-to-epithelial transition (MET) in ovarian cancer cells” (Georgia Tech Research Corporation, priority 2010, dated 2014).
